Here are results for three compounds from PMC9226124, “Macrocycle-stabilization of its interaction with 14-3-3 increases plasma membrane localization and activity of CFTR” (Nature Communications, 2022).

The assay concerns the target T1, FITC-labeled CFTRpS753pS768 peptide (no 14-3-3) (Homo sapiens, UniProt P13569).
T1 construct: made in house; host or cells: synthetic peptide
Description: Dose-response FP control assay in the absence of 14-3-3. The assay is classed as binding. Particulars: No 14-3-3. Here is the method: The 14-3-3β concentration used for the FP screening assay was 10 μM (dashed line). c HTS FP assay of the Cyclenium library. The samples contain 100 nM of FITC-CFTR_pS753pS768 peptide, 10 μM 14-3-3β, and 50 μM compound. FC-A (100 µM) was added as a positive control and DMSO as the negative control. Hit compounds are defined as a polarization increase which is higher than 20% of the response of FC-A. Red squares are compounds that appeared positive in the negative control without 14-3-3. […] Background polarization was subtracted from all values, n = 3 technical replicates. Compounds selected for further analysis are indicated with an asterisk. e Polarization in the absence of 14-3-3. […] Source data are provided as a Source Data file.
The FITC-labeled peptides were dissolved in FP buffer (10 mM HEPES pH 7.4, 150 mM NaCl, 0.1% Tween20, 1 mg/mL BSA) to a final concentration of 100 nM or 10 nM. For the dose-response assays, a 14-3-3β concentration of 10 μM was used while titrating the compounds in a two-times dilution series and, for the other assays, a dilution series of 14-3-3β was made with constant concentration of compound. The dilution series were made in 384 Corning Black Round Bottom well plates and their polarization was measured with a Tecan Infinite F500 plate reader (ex. = 485 nm, em. = 535 nm). The method of fitting of the curves was: “log(agonist) vs. response – Variable slope (four parameters)” from GraphPad Prism. The equation is Y = Bottom + (Top-Bottom)/(1 + 10^((LogEC50-X)*HillSlope)).

T1 sequence (P13569 747-774 limits assumed): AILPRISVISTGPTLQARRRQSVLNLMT

In turn, `N=C(N)NCCCC1NC(=O)C(CCCCN)NCc2ccccc2Sc2ccccc2CNC(=O)C(Cc2ccc(O)cc2)NC1=O` (stereo not drawn) [CY001951] returned an FP signal (compound 476.8 pM) of 3; an FP signal (compound 953.7 pM) of 3; an FP signal (compound 1.90735e-9 M) of 4; an FP signal (compound 3.8147e-9 M) of 4; an FP signal (compound 7.6294e-9 M) of 3; an FP signal (compound 1.52588e-8 M) of 5. For the same compound, the FP signal runs as follows: (compound 3.05176e-8 M) 4; (compound 6.10352e-8 M) 5; (compound 1.2207e-7 M) 4; (compound 2.44141e-7 M) 4; (compound 4.88281e-7 M) 5; (compound 9.76563e-7 M) 6. Besides, the FP signal is, setting by setting: (compound 1.95313e-6 M) 6; (compound 3.90625e-6 M) 6; (compound 7.8125e-6 M) 7; (compound 1.5625e-5 M) 9; (compound 3.125e-5 M) 16; (compound 6.25e-5 M) 33. For the same compound, the FP signal is given as 73 (compound 0.000125 M), 143 (compound 0.00025 M), 201 (compound 0.0005 M) and 252 (compound 0.001 M).
Turning to `NCCCCC1NCc2ccccc2Sc2ccccc2CNC(=O)C(Cc2cccc(Cl)c2)NC(=O)C(Cc2ccc(O)cc2)NC1=O` (stereo not drawn) [CY007288], the FP signal by setting is: (compound 476.8 pM) 6; (compound 953.7 pM) 6; (compound 1.90735e-9 M) 5; (compound 3.8147e-9 M) 4; (compound 7.6294e-9 M) 7; (compound 1.52588e-8 M) 6. Further, the FP signal reads like this: (compound 3.05176e-8 M) 5; (compound 6.10352e-8 M) 4; (compound 1.2207e-7 M) 4; (compound 2.44141e-7 M) 5; (compound 4.88281e-7 M) 6; (compound 9.76563e-7 M) 6. In addition, the FP signal is, setting by setting: (compound 1.95313e-6 M) 5; (compound 3.90625e-6 M) 8; (compound 7.8125e-6 M) 9; (compound 1.5625e-5 M) 16; (compound 3.125e-5 M) 30; (compound 6.25e-5 M) 55. The FP signal turned out to be 97 (compound 0.000125 M), 149 (compound 0.00025 M), 194 (compound 0.0005 M) and 224 (compound 0.001 M).
Consider `NCCCC1NCc2ccccc2Sc2ccccc2CNC(=O)C(Cc2c[nH]c3ccccc23)NC(=O)C(Cc2ccccc2)NC1=O` (stereo not drawn) [CY007345], for which the FP signal (compound 476.8 pM) came out at 5; the FP signal (compound 953.7 pM) worked out at 5; the FP signal (compound 1.90735e-9 M) is 4; the FP signal (compound 3.8147e-9 M) was found to be 7; the FP signal (compound 7.6294e-9 M) is recorded as 5; the FP signal (compound 1.52588e-8 M) is 4. The FP signal (compound 3.05176e-8 M) worked out at 4; the FP signal (compound 6.10352e-8 M) is reported as 7; the FP signal (compound 1.2207e-7 M) was 6; the FP signal (compound 2.44141e-7 M) is on record as 5; the FP signal (compound 4.88281e-7 M) is on record as 6; the FP signal (compound 9.76563e-7 M) was 7. The FP signal is, setting by setting: (compound 1.95313e-6 M) 8; (compound 3.90625e-6 M) 14; (compound 7.8125e-6 M) 28; (compound 1.5625e-5 M) 52; (compound 3.125e-5 M) 90; (compound 6.25e-5 M) 137. Also, the FP signal was determined as 191 (compound 0.000125 M), 224 (compound 0.00025 M), 238 (compound 0.0005 M) and 248 (compound 0.001 M).
